# Biological target: TcdA (Clostridioides difficile, UniProt P16154)
# Settings: peptides on beads; 0.2 µM TcdA-AF594; qualitative
# Sequence of TcdA (P16154 whole entry, looked up): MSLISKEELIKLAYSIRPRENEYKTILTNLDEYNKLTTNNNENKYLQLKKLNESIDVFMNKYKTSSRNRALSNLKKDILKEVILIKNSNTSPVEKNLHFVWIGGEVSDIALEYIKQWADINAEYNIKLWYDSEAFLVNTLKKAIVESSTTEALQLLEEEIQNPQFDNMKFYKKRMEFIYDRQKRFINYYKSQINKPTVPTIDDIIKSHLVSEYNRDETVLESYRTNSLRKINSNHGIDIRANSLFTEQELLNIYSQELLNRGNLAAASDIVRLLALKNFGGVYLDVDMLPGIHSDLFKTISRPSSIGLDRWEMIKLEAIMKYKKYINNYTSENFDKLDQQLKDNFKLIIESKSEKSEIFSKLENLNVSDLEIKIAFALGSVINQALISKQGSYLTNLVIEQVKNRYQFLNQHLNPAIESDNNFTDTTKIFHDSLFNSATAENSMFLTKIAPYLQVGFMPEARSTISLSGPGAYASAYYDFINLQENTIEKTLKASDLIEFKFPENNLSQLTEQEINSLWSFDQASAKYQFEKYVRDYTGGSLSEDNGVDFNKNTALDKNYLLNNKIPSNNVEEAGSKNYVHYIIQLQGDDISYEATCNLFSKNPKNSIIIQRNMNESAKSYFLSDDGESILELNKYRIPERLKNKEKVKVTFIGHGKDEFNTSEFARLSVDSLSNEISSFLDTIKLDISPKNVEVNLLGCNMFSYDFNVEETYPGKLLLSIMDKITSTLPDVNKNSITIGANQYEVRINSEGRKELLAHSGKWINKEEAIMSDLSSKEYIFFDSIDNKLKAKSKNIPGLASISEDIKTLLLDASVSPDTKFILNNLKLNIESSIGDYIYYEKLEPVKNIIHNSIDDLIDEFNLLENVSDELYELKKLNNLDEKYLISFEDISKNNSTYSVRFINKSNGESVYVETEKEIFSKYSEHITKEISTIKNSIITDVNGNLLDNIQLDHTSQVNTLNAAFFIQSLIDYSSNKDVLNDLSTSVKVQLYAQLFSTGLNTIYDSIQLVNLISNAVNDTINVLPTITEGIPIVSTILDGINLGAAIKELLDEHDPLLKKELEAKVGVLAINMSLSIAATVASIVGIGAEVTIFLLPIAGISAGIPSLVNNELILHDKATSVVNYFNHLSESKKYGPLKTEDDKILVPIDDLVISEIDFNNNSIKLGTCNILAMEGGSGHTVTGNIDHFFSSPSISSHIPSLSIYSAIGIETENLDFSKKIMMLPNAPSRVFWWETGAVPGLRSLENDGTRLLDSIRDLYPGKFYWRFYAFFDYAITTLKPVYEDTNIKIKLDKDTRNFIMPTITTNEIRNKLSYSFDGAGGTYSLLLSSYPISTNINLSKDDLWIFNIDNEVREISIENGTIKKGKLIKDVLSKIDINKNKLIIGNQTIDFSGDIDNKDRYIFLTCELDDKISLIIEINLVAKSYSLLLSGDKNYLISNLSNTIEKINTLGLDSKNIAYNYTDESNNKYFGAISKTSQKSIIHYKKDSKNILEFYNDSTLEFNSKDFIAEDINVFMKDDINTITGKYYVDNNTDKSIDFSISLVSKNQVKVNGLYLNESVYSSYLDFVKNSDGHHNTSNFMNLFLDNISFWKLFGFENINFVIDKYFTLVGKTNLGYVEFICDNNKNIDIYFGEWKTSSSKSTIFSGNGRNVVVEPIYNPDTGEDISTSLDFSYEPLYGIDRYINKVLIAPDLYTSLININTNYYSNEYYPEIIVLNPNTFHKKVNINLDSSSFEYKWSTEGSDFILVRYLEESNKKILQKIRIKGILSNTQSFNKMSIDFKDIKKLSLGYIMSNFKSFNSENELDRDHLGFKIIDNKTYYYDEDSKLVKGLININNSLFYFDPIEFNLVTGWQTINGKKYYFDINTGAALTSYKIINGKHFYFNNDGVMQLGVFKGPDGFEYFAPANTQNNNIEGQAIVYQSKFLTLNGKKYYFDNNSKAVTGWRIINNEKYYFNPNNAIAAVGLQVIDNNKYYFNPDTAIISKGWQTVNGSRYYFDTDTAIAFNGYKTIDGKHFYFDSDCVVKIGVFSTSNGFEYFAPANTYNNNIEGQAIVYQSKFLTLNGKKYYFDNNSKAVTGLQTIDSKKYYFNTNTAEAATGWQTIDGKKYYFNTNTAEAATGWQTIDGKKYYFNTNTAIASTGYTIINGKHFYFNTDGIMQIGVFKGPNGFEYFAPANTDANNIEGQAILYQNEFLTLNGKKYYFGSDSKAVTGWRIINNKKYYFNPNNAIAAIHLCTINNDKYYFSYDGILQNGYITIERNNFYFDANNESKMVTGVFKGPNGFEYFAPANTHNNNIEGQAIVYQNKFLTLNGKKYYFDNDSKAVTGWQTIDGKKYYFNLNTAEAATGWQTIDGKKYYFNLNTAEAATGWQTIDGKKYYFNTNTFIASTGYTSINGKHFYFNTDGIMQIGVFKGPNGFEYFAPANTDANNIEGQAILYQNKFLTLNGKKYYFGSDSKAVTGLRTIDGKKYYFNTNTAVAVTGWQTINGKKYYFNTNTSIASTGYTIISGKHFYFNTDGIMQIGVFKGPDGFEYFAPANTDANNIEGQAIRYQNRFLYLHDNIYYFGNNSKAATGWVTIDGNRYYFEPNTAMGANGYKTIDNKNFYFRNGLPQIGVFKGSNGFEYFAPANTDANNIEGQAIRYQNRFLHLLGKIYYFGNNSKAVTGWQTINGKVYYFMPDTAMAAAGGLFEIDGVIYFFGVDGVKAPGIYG
row,Sequence,TcdA binding performance in bead-based screen
1,QDWMRRHW [SA2],"performed significantly better than those from Case 3 (SA6, SA7)"
2,EFWMGRHH [SA5],"performed significantly better than those from Case 3 (SA6, SA7)"
3,MFWEHRHR [SA4],"performed significantly better than those from Case 3 (SA6, SA7)"
